Experimental data: ChEMBL document CHEMBL1201862, “PubChem BioAssay data set” (2004)
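Following 48 hours of exposure in 96-well plates, responses at five concentrations were used to interpolate endpoints linearly. GI50 is the concentration that inhibits growth by half.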 The source made the active and inactive calls. No stated cut-off is given here; in the data, active = GI50 up to about 1.1 µM and inactive = higher.

Columns and labels:
Assay in all cases: NCI-60 cell line screen, 48 h
786-0 = system: 786-0
A549 = system: A549
EKVX = system: EKVX
HL-60 = system: HL-60
HT-29 = system: HT-29
K562 = system: K562
KM12 = system: KM12
NCI-H522 = system: NCI-H522
OVCAR-8 = system: OVCAR-8
SF-268 = system: SF-268
SF-295 = system: SF-295
SK-MEL-2 = system: SK-MEL-2
SR = system: SR
SF-539 = system: SF-539
COLO 205 = system: COLO 205

Measured: GI50

C/N=C(\SC)N(C)c1nc(=[N+](C)C)ss1.[O-][Cl+3]([O-])([O-])[O-]
inactive: 786-0 > 100 µM | A549 > 100 µM | EKVX 45.3 µM | HL-60 7.38 µM | HT-29 4.22 µM | K562 10.7 µM | KM12 > 100 µM | NCI-H522 13.2 µM | OVCAR-8 > 100 µM | SF-268 > 100 µM | SF-295 > 100 µM | SK-MEL-2 > 100 µM | SR 56 µM

COc1ccc(/C=C2\CCC(CCN3CCOCC3)C2=O)cc1 (stereo not given)
inactive: 786-0 > 100 µM | A549 > 100 µM | EKVX > 100 µM | HL-60 > 100 µM | HT-29 > 100 µM | K562 > 100 µM | KM12 > 100 µM | OVCAR-8 > 100 µM | SF-268 > 100 µM | SF-295 > 100 µM | SF-539 > 100 µM | SK-MEL-2 > 100 µM | SR > 100 µM

CCNC(=O)O/N=C1/C=C2CC[C@@H]3C(CC[C@@]4(C)C3CC[C@@H]4OC(=O)NCC)[C@@]2(C)CC1 (stereo not given in full)
inactive: 786-0 3.23 µM | A549 3.98 µM | COLO 205 2.44 µM | EKVX 4.99 µM | HT-29 3.27 µM | K562 2.87 µM | KM12 2.54 µM | NCI-H522 1.95 µM | OVCAR-8 4.32 µM | SF-295 2.41 µM | SF-539 4.32 µM | SK-MEL-2 2.21 µM

CCOc1c(Cc2ccccc2)c(=O)n2c3ccccc3n3c(=O)n(C)c(=O)c1c23
inactive: 786-0 > 100 µM | A549 > 100 µM | COLO 205 > 100 µM | EKVX > 100 µM | HT-29 > 100 µM | KM12 > 100 µM | OVCAR-8 > 100 µM | SF-268 > 100 µM | SF-295 59.6 µM | SF-539 > 100 µM | SK-MEL-2 > 100 µM | SR > 100 µM

Cc1[nH]c2ccccc2c1CC/C(=N\Nc1ccccc1)c1ccccc1
inactive: 786-0 > 100 µM | A549 > 100 µM | EKVX > 100 µM | HL-60 > 100 µM | HT-29 > 100 µM | K562 > 100 µM | KM12 > 100 µM | OVCAR-8 > 100 µM | SF-295 94.6 µM | SF-539 > 100 µM | SK-MEL-2 > 100 µM

CCOC(=O)/C(=C/c1ccc(OC)c(OC)c1)C(=O)c1ccccc1
inactive: 786-0 > 100 µM | A549 28.2 µM | COLO 205 16.9 µM | EKVX 25.8 µM | HT-29 13.6 µM | K562 10.3 µM | KM12 14.9 µM | NCI-H522 13.9 µM | OVCAR-8 22.3 µM | SF-268 14.8 µM | SF-295 21.2 µM | SK-MEL-2 38.5 µM

COC(=O)NN1C(C)=C(C(=O)OC)C2(C#N)C(C(=O)OC)=C(C)N(NC(=O)OC)C12N (stereo not given)
inactive: 786-0 > 100 µM | A549 > 100 µM | COLO 205 > 100 µM | EKVX > 100 µM | HL-60 > 100 µM | HT-29 > 100 µM | K562 > 100 µM | NCI-H522 > 100 µM | OVCAR-8 > 100 µM | SF-268 > 100 µM | SF-539 > 100 µM | SK-MEL-2 > 100 µM

N=C(N)N/N=C(/CCN1CCCC1)CC(c1ccccc1)c1c(O)c2ccccc2oc1=O (stereo not given)
inactive: 786-0 > 100 µM | A549 > 100 µM | COLO 205 > 100 µM | EKVX > 100 µM | HT-29 > 100 µM | K562 > 100 µM | NCI-H522 > 100 µM | SF-268 > 100 µM | SF-295 > 100 µM | SF-539 > 100 µM | SK-MEL-2 > 100 µM

CCCCCCCCCOC(=S)NCCCCC
inactive: 786-0 35.6 µM | A549 28.2 µM | EKVX 35.2 µM | HL-60 16.6 µM | HT-29 26.8 µM | K562 27 µM | NCI-H522 20.3 µM | OVCAR-8 38.7 µM | SF-268 37.2 µM | SF-295 47.1 µM | SF-539 20.8 µM | SR 20.5 µM

Cc1ccc(Oc2ccccc2N)cc1
inactive: 786-0 21.2 µM | A549 36.9 µM | COLO 205 6.07 µM | EKVX 37.5 µM | HL-60 10.4 µM | HT-29 37.2 µM | K562 37.8 µM | KM12 33.3 µM | OVCAR-8 79.3 µM | SF-268 46.1 µM | SF-295 37.6 µM | SF-539 16.7 µM | SK-MEL-2 51.5 µM | SR 9.31 µM

CC1C(=O)N(C)C2(CO)C(=O)O[C@H](C)C12O (stereo not given in full)
inactive: 786-0 > 100 µM | A549 > 100 µM | COLO 205 > 100 µM | EKVX > 100 µM | HT-29 > 100 µM | K562 > 100 µM | KM12 > 100 µM | OVCAR-8 > 100 µM | SF-268 > 100 µM | SF-295 28.1 µM | SF-539 > 100 µM | SK-MEL-2 > 100 µM | SR > 100 µM
